# Experimental data as given in patent US8100830B2, “Non-therapeutic methods of evaluating skin neurosensitivity, kit and use of a kit for implementing the method” (Societe l'Oreal S.A., priority 2002, dated 2012).
# Columns and labels:
# [1] = test system: nasogenial sulci of healthy subjects; test: Example 1: detection threshold test, increasing capsaicin concentrations C1-C4 applied to the nasogenial sulci against vehicle; format: in vivo, human; settings: 13 healthy subjects, 3.3×10^−5% to 1×10^−3% in ethanol 10%, water 90%
# Method: Capsaicin was tested in the form of aqueous-alcoholic solutions (ethanol 10%, water 90%).
# Experimental Design: • Randomized, single-blind study, controlled • 13 healthy subjects of both sexes • 4 capsaicin solutions tested: 3.3×10^−5% (C1), 1×10^−4% (C2), 3.3×10^−4% (C3), 1×10^−3% (C4)
# 1st step: Simultaneous application to the nasogenial sulci on each side of the face of the vehicle, using impregnated cotton buds, in order to acclimatize the volunteer to the sensations induced by application of the vehicle. Waiting time of 3 minutes.
# 2nd step: Application of the vehicle to one side and of the capsaicin solution at concentration C1 on the other. After 3 minutes, ask whether the subject has perceived a difference between the 2 sides. If the subject describes an unattractive sensation on the side which has received the capsaicin, stop the test and allocate C1 as the detection threshold. If not, go immediately to step 3.
# 3rd step: Application of solution C2 to the side which has received the vehicle in […] and of the vehicle to the other side. After 3 minutes, ask whether the subject has perceived a difference between the 2 sides. If the subject describes a particular sensation on the side which has received the capsaicin, stop the test and allocate C2 as the detection threshold. If not, go immediately to step 4. […]
# [2] = format: physicochemical
# Source text: When the peripheral nervous system stimulant is capsaicin, a preferred vehicle is an aqueous-alcoholic solution, advantageously an aqueous-ethanolic solution, containing from 1% to 50% of ethanol in water, advantageously from 5% to 20%, preferably from 8% to 15% and more preferably 10%.
# [3] = test system: skin of a non-selective population of 150 women; test: Example 7: skin neurosensitivity threshold of 150 women with the kit of Example 3 (capsaicin solutions C1-C5); format: in vivo, human
# Method: This kit allows approximately 50 instances of use and comprises in a box (B) the following elements: • 1. a holder P allowing […] bottles as described in section 2 of this list to be held upright; • 2. 5 bottles F3 of 20 ml containing respectively 15 ml of solutions C1-C5 (3.16×10^−5% (C1), 1×10^−4% (C2), 3.16×10^−4% (C3), 1×10^−3% (C4) and 3.16×10^−3% (C5)) and a bottle F3T containing 15 ml of a 10% aqueous-alcoholic solution T; these bottles are shown in FIG. 2 and correspond to those defined in section 4 of Example 2; • 3. 80 standard cotton buds CT; • 4. a usage note containing the following elements: • a) use instructions for the implementation of the test, reproducing the protocol of Example 1, using the cotton buds and the bottles F3C1-5 and F3T; the bottles must be stored at 4° C. between two instances of use and discarded after one week of use. • b) a calibration system (atlas) allowing interpretation of the results (C1: excessively sensitive skin; C2: highly sensitive skin; C3: moderately sensitive skin; C4: relatively insensitive skin; C5: virtually insensitive skin; C5 not detected: completely insensitive skin).
# Use of the Kit of Example 3 to Determine the Skin Neurosensitivity Threshold of 150 Women:
# Study performed in a single-blind procedure on a non-selective population of 150 women aged from 18 to 60 years living in Paris or the surrounding region.
# It is interesting to note that the sensations reported at the level of the detection threshold (characterized by a sensation detected on the side where the capsaicin was applied, lasting for at least 30 seconds) are highly varied (presence, pins and needles, stinging, hotness, etc.)
# [4] = 109 women who detected a concentration, intensity scale 1 to 5
smiles,measurement,setting,value
COc1cc(CNC(=O)CCCC/C=C/C(C)C)ccc1O [capsaicin],tolerance of the test (pain) as evaluated by the subjects,[1],absolutely painless for all of the 13 subjects
same,stability over time of aqueous-ethanolic solutions,[2],particularly stable over time
same,"delay before appearance of the sensation, maximum",[3]; 74 of the 150 subjects,120 s
same,"delay before appearance of the sensation, minimum",[3]; 74 of the 150 subjects,60 s
same,"delay before appearance of the sensation, mean","[3]; 74 of the 150 subjects, at the detection threshold",79.9 s
same,sensations at level 2 (slight but perceptible) at the detected concentration,[3]; [4],95%
same,sensations at level 3 (moderately clearly perceptible) at the detected concentration,[3]; [4],5%
same,sensations of level 4 (substantial) or painful at the detected concentration,[3]; [4],No sensation of level 4 (“substantial”) or (“painful”) was reported
same,"subjects who detected C1, C2 or C3 (sensitive to highly sensitive population)","[3]; 150 women, C1 3.16×10^−5%, C2 1×10^−4%, C3 3.16×10^−4%",56%
same,subjects who detected C4 or C5 or did not detect any concentration (virtually or completely insensitive population),"[3]; 150 women, C4 1×10^−3%, C5 3.16×10^−3%",44%
same,women who detected a concentration,"[3]; of 150 women, C1-C5",109
